In brackets after ≈: the same amount, converted by molar mass. Several values for one entry are separate records, joined by “and”; a condition that tells them apart may be missing. Identical values can stand only once.
Key:
E. coli DNA gyrase = molecular target: T1, E. coli DNA gyrase (Escherichia coli, UniProt P0AES4); experiment: Gyrase supercoiling inhibition, gel-based; assay type: biochemical
T1 construct: purchased Inspiralis Limited
Experimental: Of this stock solution, 27 µl was aliquoted for each reaction in 1.5 ml Eppendorf tubes and supplemented with 0.6 µl of the appropriate compound dilution or corresponding solvent with a final DMSO concentration of 2%. The reactions were started with 3 µl of enzyme (1 U for WT gyrase retrieved from Inspiralis Limited or 25–30 nM gyrase variants purified in house) in dilution buffer (50 mM Tris–HCl (pH 7.5), 100 mM KCl, 2 mM DTT, 1 mM EDTA and 50% (wt/vol) glycerol) for a final volume of 30 µl. Reactions were run at 37 °C for 30 min and stopped with the addition of 30 µl STEB buffer (40% (wt/vol) sucrose, 100 mM Tris–HCl pH 8, 100 mM EDTA, 0.5 mg ml^−1 bromophenol blue) and 30 µl of a chloroform:isoamyl alcohol solution (24:1 vol/vol). After brief vortexing and centrifugation at 2,300g for 1 min, 20 µl of the aqueous phase was loaded onto 1% (wt/vol) agarose gels in TAE ([…]) gel. The gels were run at 85 V for 2 h followed by staining (15 min) in 1 µg ml^−1 ethidium bromide and destaining (5–10 min) in water. […] IC50 curves were generated in GraphPad Prism (v9.0.0) using the non-linear regression curve fit variable slope with four parameters and least squares regression. A. baumannii and P. aeruginosa gyrase supercoiling inhibition assays were set up in the same way as E. coli gyrase supercoiling assays. The enzyme was retrieved from Inspiralis Ltd. (PAG1001 and ABG1001) and tested in-house for activity with ×5 U enzyme used for each reaction.

[1] = molecular target: T2, E. coli GyrA S97L/GyrB gyrase (Escherichia coli, UniProt P0AES4, S97L); experiment: Gyrase supercoiling inhibition, GyrA S97L variant; assay type: biochemical
T2 construct: represents the first full-length E. coli gyrase structure in complex with an intact DNA molecule; 10xHis; 2xStrep (Twin-Strep); made in house
Experimental: (§1) Of this stock solution, 27 µl was aliquoted for each reaction in 1.5 ml Eppendorf tubes and supplemented with 0.6 µl of the appropriate compound dilution or corresponding solvent with a final DMSO concentration of 2%. The reactions were started with 3 µl of enzyme (1 U for WT gyrase retrieved from Inspiralis Limited or 25–30 nM gyrase variants purified in house) in dilution buffer (50 mM Tris–HCl (pH 7.5), 100 mM KCl, 2 mM DTT, 1 mM EDTA and 50% (wt/vol) glycerol) for a final volume of 30 µl. Reactions were run at 37 °C for 30 min and stopped with the addition of 30 µl STEB buffer (40% (wt/vol) sucrose, 100 mM Tris–HCl pH 8, 100 mM EDTA, 0.5 mg ml^−1 bromophenol blue) and 30 µl of a chloroform:isoamyl alcohol solution (24:1 vol/vol). After brief vortexing and centrifugation at 2,300g for 1 min, 20 µl of the aqueous phase was loaded onto 1% (wt/vol) agarose gels in TAE (Tris–acetate […]) gel. The gels were run at 85 V for 2 h followed by staining (15 min) in 1 µg ml^−1 ethidium bromide and destaining (5–10 min) in water. DNA was visualized (602/50, UV Trans, auto optimal exposure) with a ChemiDoc MP (Bio-Rad Laboratories Inc., equipped with ImageLab Touch Software v2.0.0.27) and the percentage of supercoiled DNA relative to the total amount material per lane was determined with ImageLab 6.1 software (Bio-Rad Laboratories Inc.) or ImageJ[47] software. […]

[2] = molecular target: T3, E. coli GyrA S172A/GyrB gyrase (Escherichia coli, UniProt P0AES4, S172A); experiment: Gyrase supercoiling inhibition, GyrA S172A variant; assay type: biochemical
T3 construct: represents the first full-length E. coli gyrase structure in complex with an intact DNA molecule; 10xHis; 2xStrep (Twin-Strep); made in house
Experimental: as §1

[3] = tested on: 60-resistant (60-r) isolates of E. coli W3110; experiment: microbe, parasite or virus in culture; assay type: cell-based, Escherichia coli; conditions: for MIC: Escherichia coli
Experimental: MIC was determined by broth microdilution. Single-colony cultures were grown to exponential phase (OD600 of 0.5) aerobically at 37 °C. In case of strains from the Keio collection, 50 µg ml^−1 kanamycin was supplemented to the media to ascertain a homogeneous population. The bacterial suspensions were diluted 100-fold in CAMHB and 50 µl was added to a twofold serial dilution series of test compounds (50 µl per well) in polypropylene 96-well microtitre plates to reach a volume of 100 µl. The plates were sealed with breathable membranes and incubated overnight at 37 °C with constant shaking (600 r.p.m.). The MIC was determined as the lowest concentration at which no visible bacterial growth was observed as compared with the inoculum controls from the median of a minimum of triplicates.
The plates were incubated at 37 °C and checked for growth after 24 and 48 h. […] Nine colonies with an increased MIC were selected for further analysis and stored as glycerol stocks.

Compound | IC50 (E. coli DNA gyrase) [nM] | fold less potent than LEI-800 (E. coli DNA gyrase; supercoiling IC50 ratio) [fold] | supercoiling inhibition of GyrA S97L variant [1] | IC50 [2] [nM] | MIC ([3]; E. coli W3110 60-r1) | MIC ([3]; E. coli W3110 60-r3) | MIC ([3]; E. coli W3110 60-r6) | fold more potent than CIP (E. coli DNA gyrase; supercoiling IC50 ratio) [fold] | increase in MIC in resistant colonies ([3]; all nine colonies)
O=S(=O)(NC[C@H]1CC[C@@H](c2ccc(-c3ccc(F)nc3)cc2)N1)c1cccc2cnccc12 [LEI-801] | 440 | 13 | highly resistant | 360 | – | – | – | – | –
O=S(=O)(NC[C@@H]1CC[C@H](c2ccc(-c3cccnc3)cc2)N1)c1cccc2cnccc12 [LEI-800] | 35 | – | highly resistant | 86 | > 50 µM | 12.5 µM (≈ 5.56 µg/mL) | 12.5 µM (≈ 5.56 µg/mL) | > 25 | –
O=S(=O)(NC[C@@H]1CC[C@H](c2ccc(-c3ccc(F)cc3)cc2)N1)c1cccc2cnccc12 [Compound 101] | – | – | – | – | > 50 µM | 6.25 µM (≈ 2.88 µg/mL) | 3.1 µM (≈ 1.43 µg/mL) | – | –
O=S(=O)(NCCNCc1ccc(-c2ccc(F)nc2)cc1)c1cccc2cnccc12 [Compound 60] | – | – | – | – | > 100 µM | 100 µM (≈ 43.7 µg/mL) | > 100 µM | – | at least an eightfold increase in MIC
O=C(O)c1cn(C2CC2)c2cc(N3CCNCC3)c(F)cc2c1=O [CIP, ciprofloxacin] | – | – | – | – | 0.024 µM and 0.0078 µg/mL | 0.024 µM and 0.0078 µg/mL | 0.024 µM and 0.0078 µg/mL | – | –

Source: article PMC11374673, “Discovery of isoquinoline sulfonamides as allosteric gyrase inhibitors with activity against fluoroquinolone-resistant bacteria” (Nature Chemistry, 2024)
